Measurements from patent US5698547A, “Cephalosporin antibiotics” (Microcide Pharmaceuticals, Inc., priority 1995, dated 1997).
Values after ≈ are worked out from the molar mass of the structure shown. Where a name gives a salt, the structure may show the parent alone.

Test system: S. aureus Col (Meth^R) (lac^-)
Assay: MIC by agar dilution, S. aureus Col (Meth^R) (lac^-)
Assay type: cell-based
Conditions: Staphylococcus aureus; agar dilution; S. aureus Col (Meth^R) (lac^-); read-out: MIC
Description: The compounds of the invention were evaluated against several β-lactamresistant bacteria strains by determining the minimum inhibitory concentration (MIC, μg/ml) of each compound with respect to each strain. The MIC, the lowest concentration of antibiotic which inhibits growth of the test organism, was determined by the agar dilution method.
To determine the MIC for bacterial isolates, the test compound was incorporated in a series of two-fold dilutions into liquified Mueller-Hinton agar. Upon solidification, a number of different bacterial strains were spot inoculated with a replicating device onto the agar surface. […] The procedures used in these studies have been standardized by the National Committee for Clinical Laboratory Standards (NCCLS), as per the NCCLS publication entitled METHODS FOR DILUTION ANTIMICROBIAL SUSCEPTIBILITY TESTS (1991), which is incorporated herein by reference.
Aliquots of antimicrobial agents were prepared in phosphate buffered saline (PBS) at pH 7.2. Tween 20 or DMSO was used as a solubilizing vehicle as needed. Standard methods of vortexing, sonicating and gentle heat were used to facilitate solubilizing the test agent. Typically, the concentration of the stock solution was 10× that of the highest drug concentration tested. A 1.28 mg/mL stock solution was used with a subsequent highest working concentration of 128 μg/mL. Serial two-fold dilutions were done through ≤0.25 μg/mL. Each drug level was tested in duplicate. Two-fold drug dilutions were done in sterile 50 mL tubes with a final drug volume of 5 mL. Upon the addition of 45 mL of molten agar, a 10-fold dilution resulted. Two, 25 mL. plates were then poured into 15×150 mm square Petri plates with grids and allowed to harden.
A control plate with a reference drug, either cefotaxime, vancomycin or imipenem, was used as the positive growth control. Stock concentrations of reference antibiotics were prepared and frozen at -80° C. Upon preparation, the control plates were sealed and stored in the refrigerator for up to 1 week prior to use; however, imipenem control plates had to be prepared just prior to use. All test plates were used within 24 hours of preparation.
Satisfactory results were obtained where the inoculum contained about 10^4 colony forming units (cfu) ±0.5 logs. Starting with pure cultures of the test isolates on agar plates, a few isolated colonies were transferred to a tube of nutrient broth and allowed to grow 4-6 hours at 35°-36° C. to reach log-phase growth. Dropwise addition of the broth culture to PBS was done to match a 0.5 McFarland turbidity standard equal to 10^8 cfu/mL. This was further diluted ten-fold in PBS to reach a working inoculum concentration of 10^7 cfu/mL. When 1 μL of the working inoculum was applied to the agar surface a concentration of about 10^4 cfu per spot was obtained.
Disposable sterile 1 μL loops were used to inoculate test plates, with each isolate in a designated grid on the agar plate. An alternate method of inoculation involved the use of a replica plater, a device with 48 steel pins allowing the simultaneous inoculation of multiple isolates. After the spots had dried, the plates were incubated at 35°-36° C. for 16-20 hours. Endpoints were assessed as the minimum inhibitory concentration (MIC) of antimicrobial agent.
The novel agents of this invention are notable for their enhanced activity against S. aureus Col and Enterococci (E. faecium and E. faecalis). The S. aureus Col strain is a high-level PBP2a producer, whereas S. aureus Col 8A, its isogenic partner, lacks PBP2a. […] Thus, the compounds of the present invention are effective against PBP2a-producing bacteria.

Structure (SMILES) | MIC [µg/mL]
N=C(N)SCc1ccccc1SC1=C(C(=O)O)N2C(=O)[C@@H](NC(=O)/C(=N\O)c3ccccc3)[C@H]2SC1 [Cmpd 136, (7R)-7-[(Z)-2-(Phenyl)-2-(hydroxyimino)acetamido]-3-(2-isothiouroniummethylphenylthio)-3-cephem-4-carboxylate, inner salt] | 2
O=C(Cc1ccccc1)N[C@@H]1C(=O)N2C(C(=O)O)=C(Sc3ccccc3CSc3ncn[nH]3)CS[C@H]12 [Cmpd 67, (7R)-7-[(Phenylacetyl)amino]-3-(2-(1,2,4-triazol-5-ylthiomethyl)phenylthio)-3-cephem-4-carboxylic acid] | 4 (≈ 7.41 µM)
O=C(Cc1ccccc1)N[C@@H]1C(=O)N2C(C(=O)O)=C(Sc3cnnn3-c3ccccc3)CS[C@H]12 [Cmpd 91, (7R)-7-[(Phenylacetyl)amino]-3-(1-N-phenyl-1,2,3-triazol-5-ylthio)-3-cephem-4-carboxylic acid] | 4 (≈ 8.1 µM)
O=C(Cc1ccccc1)N[C@@H]1C(=O)N2C(C(=O)O)=C(Sc3ccccc3CSc3ccncc3)CS[C@H]12 [Cmpd 70] | 4 (≈ 7.28 µM)
O=C(Cc1ccccc1)N[C@@H]1C(=O)N2C(C(=O)O)=C(Sc3snnc3-c3ccccc3)CS[C@H]12 [Cmpd 93, (7R)-7-[(Phenylacetyl)amino]-3-(4-phenyl-1,2,3-thiadiazol-5-ylthio)-3-cephem-4-carboxylic acid] | 2 (≈ 3.92 µM)
N=C(N)SCCc1ccccc1SC1=C(C(=O)O)N2C(=O)[C@@H](NC(=O)Cc3ccccc3)[C@H]2SC1 [Cmpd 100, (7R)-7-[(Phenylacetyl)amino]-3-(2-(2-isothiouronium)ethylphenylthio)-3-cephem-4-carboxylate, inner salt] | 4
N=C(NCCN1CCOCC1)SCc1ccc(SC2=C(C(=O)O)N3C(=O)[C@@H](NC(=O)Cc4ccccc4)[C@H]3SC2)c(I)c1 [Cmpd 61, (7R)-7-[(Phenylacetyl)amino]-3-(4-(N-morpholinoethyl)isothiouroniummethyl-2-iodophenylthio)-3-cephem-4-carboxylate, inner salt] | 4
Cn1cc[n+](Cc2ccoc2-c2ccccc2SC2=C(C(=O)[O-])N3C(=O)[C@@H](NC(=O)Cc4ccccc4)[C@H]3SC2)c1 [Cmpd 48, (7R)-7-[(Phenylacetyl)amino]-3-(2-(3-(N-methylimidazoliummethyl)furan-2-yl)phenylthio)-3-cephem-4-carboxylic acid] | 4 (≈ 6.82 µM)
O=C(Cc1ccccc1)N[C@@H]1C(=O)N2C(C(=O)O)=C(Sc3ccc(Br)cc3)CS[C@H]12 [Cmpd 5, (7R)-7-[(Phenylacetyl)amino]-3-(p-bromophenylthio)-3-cephem-4-carboxylic acid] | 2 (≈ 3.96 µM)
O=C(Cc1ccccc1)N[C@@H]1C(=O)N2C(C(=O)O)=C(Sc3ccnn3-c3ccccn3)CS[C@H]12 [Cmpd 105, (7R)-7-[(Phenylacetyl)amino]-3-(1-N-(pyridin-2-yl)pyrazol-5-ylthio)-3-cephem-4-carboxylic acid] | 4 (≈ 8.1 µM)
Nc1nc(/C(=N/OC2CCCC2)C(=O)N[C@@H]2C(=O)N3C(C(=O)O)=C(Sc4cccnc4-c4ccccc4)CS[C@H]23)cs1 [Cmpd 86, (7R)-7-[(Z)-2-(aminothiazol-4-yl)-2-(cyclopentyloxyimino)acetamido]-3-(2-phenylpyridin-3-ylthio)-3-cephem-4-carboxylic acid] | 8 (≈ 12.8 µM)
O=C(Cc1ccccc1)N[C@@H]1C(=O)N2C(C(=O)O)=C(Sc3ccccc3-c3cnco3)CS[C@H]12 [Cmpd 95, (7R)-7-[(Phenylacetyl)amino]-3-(2-oxazol-5-ylphenylthio)-3-cephem-4-carboxylic acid] | 4 (≈ 8.1 µM)
N#Cc1ccc(-c2ccccc2SC2=C(C(=O)O)N3C(=O)[C@@H](NC(=O)Cc4ccccc4)[C@H]3SC2)cc1 [Cmpd 23, (7R)-7-[(Phenylacetyl)amino]-3-(2-(4-cyanophenyl)phenylthio)-3-cephem-4-carboxylic acid] | 2 (≈ 3.79 µM)
N=C(N)SCc1ccccc1SC1=C(C(=O)O)N2C(=O)[C@@H](NC(=O)Cc3ccc(CN)cc3)[C@H]2SC1 [Cmpd 124, (7R)-7-[((4-aminomethylphenyl)acetyl)amino]-3-(2-isothiouroniummethylphenylthio)-3-cephem-4-carboxylate, trifluoroacetic acid salt] | 4
NC(=NC1CC1)SCc1ccccc1SC1=C(C(=O)O)N2C(=O)[C@@H](NC(=O)Cc3ccccc3)[C@H]2SC1 [Cmpd 79, (7R)-7-[(Phenylacetyl)amino]-3-(2-N-cyclopropylisothiouroniummethylphenylthio)-3-cephem-4-carboxylate, inner salt] | 4
O=C(Cc1ccco1)N[C@@H]1C(=O)N2C(C(=O)O)=C(Sc3ccnn3-c3ccccc3)CS[C@H]12 [Cmpd 111, (7R)-7-[(2-furylacetyl)amino]-3-(1-N-phenylpyrazol-5-ylthio)-3-cephem-4-carboxylic acid] | 8 (≈ 16.6 µM)
O=C(Cc1ccccc1)N[C@@H]1C(=O)N2C(C(=O)O)=C(Sc3ccccc3-c3cccs3)CS[C@H]12 [Cmpd 37, (7R)-7-[(Phenylacetyl)amino]-3-(2-(2-thienyl)phenylthio)-3-cephem-4-carboxylic acid] | 2 (≈ 3.93 µM)
O=C(Cc1ccccc1)N[C@@H]1C(=O)N2C(C(=O)O)=C(Sc3ccc(CSC4=NCCN4)cc3I)CS[C@H]12 [Cmpd 59, (7R)-7-[(Phenylacetyl)amino]-3-(4-(2-imidazolin-2-ylthiomethyl)-2-iodophenylthio)-3-cephem-4-carboxylic acid] | 2 (≈ 3 µM)
N=C(N)SCc1ccccc1SC1=C(C(=O)O)N2C(=O)[C@@H](NC(=O)CSCCCI)[C@H]2SC1 [Cmpd 134, (7R)-7-[(3-iodoprop-1-ylthioacetyl)amino]-3-(2-isothiouroniummethylphenylthio)-3-cephem-4-carboxylate, inner salt] | 2
O=C(Cc1ccc(Cl)cc1)N[C@@H]1C(=O)N2C(C(=O)O)=C(Sc3cccnc3-c3ccccc3)CS[C@H]12 [Cmpd 84, (7R)-7-[(4-Chlorophenylacetyl)amino]-3-(2-phenylpyridin-3-ylthio)-3-cephem-4-carboxylic acid] | 2 (≈ 3.72 µM)
COc1ccc(Cc2ccc(-c3ccccc3SC3=C(C(=O)O)N4C(=O)[C@@H](NC(=O)Cc5ccccc5)[C@H]4SC3)s2)cc1 [Cmpd 43, (7R)-7-[(Phenylacetyl)amino]-3-(2-(2-(4-methoxyphenylmethyl)thien-5-yl)phenylthio)-3-cephem-4-carboxylic acid] | 4 (≈ 6.36 µM)
N=C(N)SCc1ccccc1SC1=C(C(=O)O)N2C(=O)[C@@H](NC(=O)Cc3ccccc3)[C@H]2SC1 [Cmpd 64, (7R)-7-[(Phenylacetyl)amino]-3-(2-isothiouroniummethylphenylthio)-3-cephem-4-carboxylate, inner salt] | 0.5
Nc1nc(-c2ccccc2)c(SC2=C(C(=O)O)N3C(=O)[C@@H](NC(=O)Cc4ccccc4)[C@H]3SC2)s1 [Cmpd 92, (7R)-7-[(Phenylacetyl)amino]-3-(2-amino-4-phenylthiazol-5-ylthio)-3-cephem-4-carboxylic acid] | 2 (≈ 3.81 µM)
CC(C)(C)c1ccccc1SC1=C(C(=O)O)N2C(=O)[C@@H](NC(=O)Cc3ccccc3)[C@H]2SC1 [Cmpd 46, (7R)-7-[(Phenylacetyl)amino]-3-(2-tert-butylphenylthio)-3-cephem-4-carboxylic acid] | 1 (≈ 2.07 µM)
NCc1ccccc1CC(=O)N[C@@H]1C(=O)N2C(C(=O)O)=C(Sc3ccnn3-c3ccccc3)CS[C@H]12 [Cmpd 96, (7R)-7-[((2-aminomethylphenyl)acetyl)amino]-3-(1-N-phenylpyrazol-5-ylthio)-3-cephem-4-carboxylic acid] | 8 (≈ 15.3 µM)
